Consider nine compounds from patent US20040258668A1 (priority 2001, published 2004).

Where two headings read alike, the source gives them in different places.

Data set [1] deals with LLC-MK2 cells infected with SeV18+SEAP/ΔF-GFP. In words: LDH release (cell damage) from SeV-infected LLC-MK2 cells. The settings on record: for cell damage (LDH release): agents added two days after infection, at the concentration tested.
Experimental: (§1) LLC-MK2 (monkey kidney-derived cells) were seeded into 6-well plates at a concentration of 5×10^5 cells/well, and then cultured in MEM (Gibco-BRL, Rockville, Md.) media containing 10% fetal bovine serum (FBS: BioWhittaker, Walkersville, Md.) at 37° C. for 24 hours in a 5% CO2 incubator. Cells were washed with PBS and infected with F-deleted SeV encoding secretion-type alkaline phosphatase (SEAP)) and green fluorescence protein (GFP) genes (SeV18+SEAP/ΔF-GFP: FIG. 1) at MOI=3. […] After infection, cell culture was continued in MEM media without serum. […] Media from each culture was collected and subsequently replaced with fresh media containing the same content every two days. Heme agglutination activity (HA activity) was measured as an indicator of virion formation; lactose dehydrogenase (LDH) quantification was measured as an indicator of cell damage; and SEAP activity was measured as an indicator of the expression level of genes carried on the vector.
(§2) HA activity was measured using the method described by Kato et al., (Kato, A. et al. , Genes Cells 1, 569-579 (1996)). That is, virus-containing media was subjected to two-fold serial dilution in a 96 round bottom well plate, such that each well contained 50 ul samples. A 50 ul solution of preserved chicken blood (COSMO BIO Co., Ltd., Tokyo, Japan), diluted to 1% with PBS, was added to each well and mixed. The mixture was incubated at 4° C. for one hour. Agglutination of red blood cells was observed, and HA activity was calculated by selecting the highest virus dilution in which agglutination was still observed. Additionally, 1 HA U was considered to be equal to 1×10^6 viruses, and values were shown as a number of viruses. […] LDH quantification was conducted using a Cytotoxicity Detection Kit (Roche, Basel, Switzerland) according to the methodin the kit. […] SEAP activities were measured using a Reporter Assay Kit-SEAP (TOYOBO, Osaka, Japan) according to kit method.
(§3) That is, LLC-MK2 was plated in a 6-well plate at a concentration of 5×10^5 cells/well, and incubated in MEM media containing 10% fetal bovine serum at 37° C. for 24 hours in a 5% CO2 incubator. […] After infection, culture was continued in MEM media without serum. […] Cultured media was recovered every two days, and at this time fresh media, either with or without 5 mM aspirin, was added. The cultures were treated with aspirin for either 0, 2, 4, 6, or 8 days, and then examined. The recovered culture media was analyzed for HA activity, LDH quantification, and SEAP activity. GFP expression and cell damage were also periodically examined using fluorescence microscopy.
(§4) The experiment was conducted as described in Example 1: LLC-MK2 was plated onto a 6-well plate at a concentration of 5×10^5 cells/well, and incubated in MEM media containing 10% fetal bovine serum at 37° C. for 24 hours in a 5% CO2 incubator. […] After infection, cells were cultured in MEM media without serum for two days, then cultured in MEM media (without serum) containing agents at the recorded concentrations. Cultured media was collected every two days and replaced with a same volume of fresh media. HA activity analysis and LDH quantitative analysis were performed on recovered culture media. GFP expression and cell damage were also periodically examined using fluorescence microscopy.
The subject of data set [2] is Sendai virus (SeV) vector SeV18+SEAP/ΔF-GFP. Briefly: HA activity (virion formation) in culture media of SeV-infected LLC-MK2 cells. The settings on record: for SeV transcription and replication (HA activity): agents added two days after infection, SeV18+SEAP/ΔF-GFP or SeV18+/ΔF-GFP, MOI=3; for SeV transcription and replication with NO-associated agents: agent added two days after infection.
Experimental: as §1, §2, §3, §4

Data set [3] concerns Cytomegarovirus. The settings on record: Albrecht et al. (1987); cited from earlier work.
The test system of data set [4] is Vesicular Stomatitis virus (VSV). The settings on record: Chen et al., Virology 276 (2000); cited from earlier work.
Data set [5] deals with LLC-MK2 cells infected with SeV18+SEAP/ΔF-GFP. Briefly: GFP expression and cell damage by fluorescence microscopy. The settings on record: 5 mM aspirin.
Experimental: LLC-MK2 (monkey kidney-derived cells) were seeded into 6-well plates at a concentration of 5×10^5 cells/well, and then cultured in MEM (Gibco-BRL, Rockville, Md.) media containing 10% fetal bovine serum (FBS: BioWhittaker, Walkersville, Md.) at 37° C. for 24 hours in a 5% CO2 incubator. Cells were washed with PBS and infected with F-deleted SeV encoding secretion-type alkaline phosphatase (SEAP)) and green fluorescence protein (GFP) genes (SeV18+SEAP/ΔF-GFP: FIG. 1) at MOI=3. […] After infection, cell culture was continued in MEM media without serum. Two days after infection, the media was replaced with MEM media (without serum) containing 0.625, 1.25, 2.5, and 5 mM of aspirin, or no aspirin. […] Heme agglutination activity (HA activity) was measured as an indicator of virion formation; lactose dehydrogenase (LDH) quantification was measured as an indicator of cell damage; and SEAP activity was measured as an indicator of the expression level of genes carried on the vector.
GFP expression level and cell damage were also periodically observed using fluorescence microscopy.
That is, LLC-MK2 was plated in a 6-well plate at a concentration of 5×10^5 cells/well, and incubated in MEM media containing 10% fetal bovine serum at 37° C. for 24 hours in a 5% CO2 incubator. […] The recovered culture media was analyzed for HA activity, LDH quantification, and SEAP activity. […]
Data set [6] has as its system SEAP gene carried on SeV18+SEAP/ΔF-GFP.
Experimental: LLC-MK2 (monkey kidney-derived cells) were seeded into 6-well plates at a concentration of 5×10^5 cells/well, and then cultured in MEM (Gibco-BRL, Rockville, Md.) media containing 10% fetal bovine serum (FBS: BioWhittaker, Walkersville, Md.) at 37° C. for 24 hours in a 5% CO2 incubator. Cells were washed with PBS and infected with F-deleted SeV encoding secretion-type alkaline phosphatase (SEAP)) and green fluorescence protein (GFP) genes (SeV18+SEAP/ΔF-GFP: FIG. 1) at MOI=3. […] After infection, cell culture was continued in MEM media without serum. Two days after infection, the media was replaced with MEM media (without serum) containing 0.625, 1.25, 2.5, and 5 mM of aspirin, or no aspirin. Media from each culture was collected and subsequently replaced with fresh media containing the same content every two days.
SEAP activities were measured using a Reporter Assay Kit-SEAP (TOYOBO, Osaka, Japan) according to kit method.
A short description of data set [7]: Aspirin toxicity (LD50, estimated toxicity limit). It counts as in vivo. The settings on record: ⅙ of LD50.
[8] abbreviates: 5 mM aspirin, regardless of length of treatment.
The mark [9] stands for this setting: 0.625-5 mM aspirin added two days after infection.

Take `O=C(O)Cc1ccccc1Nc1c(Cl)cccc1Cl` [Diclofenac sodium]: in data set [1], the “cell damage (LDH release)” value is on record as “enhanced cell damage”. For the same compound, the “SeV transcription and replication (HA activity)” value in data set [2] is “suppressed SeV transcription and replication”.

Take `CC(C(=O)O)c1ccc(-c2ccccc2)c(F)c1` (centres unmarked) [Flurbiprofen]: the “cell damage (LDH release)” value in data set [1] is reported as “only moderately reduced cell damage”. Also, the “SeV transcription and replication (HA activity)” value in data set [2] is “suppressed SeV transcription and replication”.

As to `CC(C(=O)O)c1cccc(C(=O)c2ccccc2)c1` (centres unmarked) [Ketoprofen], the “cell damage (LDH release)” value in data set [1] is on record as “reduced cell damage”. Also, the “SeV transcription and replication (HA activity)” value in data set [2] was “suppressed SeV transcription and replication”.

Take `Cc1cccc(Nc2ccccc2C(=O)O)c1C` [Mefenamic acid]: the “cell damage (LDH release)” value in data set [1] is listed as “enhanced cell damage”. In addition, in data set [2], the “SeV transcription and replication (HA activity)” value was “suppressed SeV transcription and replication”.

For `COc1ccc(Cc2nccc3cc(OC)c(OC)cc23)cc1OC` [Papaverin], in data set [3], the Cytomegarovirus multiplication result is “suppress Cytomegarovirus multiplication”. Moreover, in data set [1], the “cell damage (LDH release)” value is reported as “enhanced cell damage”. For the same compound, the “SeV transcription and replication (HA activity)” value in data set [2] is “suppressed SeV transcription and replication”.

As to `CC(=O)Oc1ccccc1C(=O)O` [aspirin, acetylsalicylic acid], in data set [4], the “multiplication of VSV” value is listed as “suppressed the multiplication of the Vesicular Stomatitis virus (VSV)”. Besides, the “nature of suppression of SeV transcription and replication” value in data set [5] (after withdrawal) is “transient”. Besides, in data set [5] (treatment 0-8 days), the “GFP expression and cell damage during aspirin treatment” value is “GFP expression is low and cell damage is not observed”. For the same compound, the “cell damage (LDH)” value in data set [1] (5 mM aspirin) was “Almost no cell damage was observed”. Further, in data set [1] (setting [8]), the “time after end of aspirin treatment until LDH increases” value is reported as “four”. Further, the LDH release entry in data set [1] (setting [9]) is “concentration-dependent decrease in LDH release”. Besides, the “cell damage (LDH release)” value in data set [1] is recorded as “reducing cytotoxicity”. Further, the SEAP activity result in data set [6] (5 mM aspirin) is “most significant decrease in activity”; in data set [6] (setting [9]), “concentration-dependent decrease in SEAP activity”. Further, the “HA activity (virion formation)” value in data set [2] (5 mM aspirin added two days after infection, MOI=3, LLC-MK2) was “suppressed the increase in HA activity”. Further, in data set [2] (setting [8]), the “time after end of aspirin treatment until HA activity and virion formation increase” value was “two”. Also, the “HA activity during aspirin treatment” value in data set [2] (5 mM aspirin, treatment 0, 2, 4, 6 or 8 days) is on record as “increase in HA activity was low during aspirin treatment”. Besides, the “SeV transcription and replication (HA activity)” value in data set [2] was “suppressed SeV transcription and replication”. Further, the estimated toxicity limit in data set [7] is 300 mg/kg.

For `COc1ccc2c(c1)c(CC(=O)O)c(C)n2C(=O)c1ccc(Cl)cc1` [indomethacin, Indomethacin], in data set [1], the “cell damage (LDH release)” value was “only moderately reduced cell damage”. Further, the “SeV transcription and replication (HA activity)” value in data set [2] was “suppressed SeV transcription and replication”.

`O=[N+]([O-])O[C@H]1CO[C@H]2[C@@H]1OC[C@H]2O[N+](=O)[O-]` [isosorbide dinitrate]: in data set [2], the “SeV transcription and replication with NO-associated agents” value was “did not significantly suppress transcription and replication”.

As for `O=C(NCCO[N+](=O)[O-])c1cccnc1` [nicorandil], the “SeV transcription and replication with NO-associated agents” value in data set [2] was “did not significantly suppress transcription and replication”.
